What was measured:
Assay type in all cases: cell-based
[1] = tested on: Panc1 cells (human pancreatic cancer); assay: MTT cytotoxicity assay, Panc1
Experimental: (§1) Having obtained a series of structurally diverse OA-dithiocarbamates, we next performed a systematic biological evaluation to examine whether introducing an extra dithiocarbamate group could improve antitumor activities. These compounds were evaluated by MTT assay against human pancreatic cancer (Panc1), human lung cancer (A549), human hepatoma cell (Hep3B), human hepatoma cell (Huh-7), human colon cancer (HT-29), and human cervical cancer (Hela) cells, with the widely used anticancer drugs fluorouracil, docetaxel, and cisplatin as positive controls (Table 2). […] Moreover, the cytotoxicities of compounds 3a-3t were also evaluated in human normal hepatocytes (LO2) to determine whether these compounds preferred killing tumor cells over normal cells.
(§2) The optical density at 490 nm of each well was measured using a microplate reader (Molecular devices corporation, Sunnyvale, CA. USA) to calculate the percent of cell viability. The inhibition rates were calculated using GraphPad Prism 7.0 software. The seven tested cell lines were obtained from the laboratory of Molecular Pharmacology, Department of Pharmacology, School of Pharmacy, Southwest Medical University.
(§3) The in vitro cytotoxic activities of the compounds were evaluated by MTT assay against Panc1, A549, Hep3B, Huh-7, HT-29, Hela, LO2. Cell lines were obtained from the Laboratory of Molecular Pharmacology, Southwest Medical University. Briefly, different tumor cells grew in DMEM medium except for A549, which used 1640 medium. Cells ((3–5) × 10^3 cells/well) were harvested at the log phase of growth and seeded in 96-well plates. After 24 h incubation at 37 °C in 5% CO2 to allow cell attachment, cultures were exposed to various concentrations of the isolated compounds for 48 h. Finally, the MTT solution was added. Plates were further incubated for 4 h at 37 °C after adding 150 µL/well of DMSO and shaking for 10 min on the shaker platform. The plates were read in a 96-well plate reader at 490 nm wavelength. The results were expressed as IC50 values, and were defined as the concentration at which 50% survival of cells was obtained. Fluorouracil, docetaxel, and cisplatin were co-assayed as positive controls.

[2] = tested on: A549 cells (human lung cancer); assay: MTT cytotoxicity assay, A549; details: 48 h exposure
Experimental: as §1, §2, §3

[3] = tested on: Hep3B cells (human hepatoma cell); assay: MTT cytotoxicity assay, Hep3B; details: 48 h exposure
Experimental: as §1, §2, §3

[4] = tested on: Huh-7 cells (human hepatoma cell); assay: MTT cytotoxicity assay, Huh-7; details: Huh-7, MTT, 48 h exposure
Experimental: as §1, §2, §3

[5] = tested on: HT-29 cells (human colon cancer); assay: MTT cytotoxicity assay, HT-29; details: HT-29, MTT, 48 h exposure
Experimental: as §1, §2, §3

[6] = tested on: Hela cells (human cervical cancer); assay: MTT cytotoxicity assay, Hela; details: 48 h exposure
Experimental: as §1, §2, §3

[7] = tested on: LO2 cells (human normal hepatocytes); assay: MTT cytotoxicity assay, LO2 normal cells
Experimental: as §1, §2, §3

[8] = Homo sapiens, PANC-1, 48 h exposure

Row | Structure (SMILES) | IC50 [1, 8] [µM] | IC50 ([2]; Homo sapiens) [µM] | IC50 ([3]; Homo sapiens) [µM] | IC50 ([4]; Homo sapiens) [µM] | IC50 ([5]; Homo sapiens) [µM] | IC50 ([6]; Homo sapiens) [µM] | IC50 ([7]; L02, 48 h exposure) [µM] | IC50 ([1]; 48 h exposure) [µM] | IC50 [2] [µM] | IC50 [3] [µM] | IC50 [4] [µM] | IC50 [5] [µM] | IC50 [6] [µM] | IC50 ([7]; 48 h exposure) [µM]
1 | CC1(C)CC[C@]2(C(=O)O)CC[C@]3(C)C(=CC[C@@H]4[C@@]5(C)CC[C@H](O)C(C)(C)[C@@H]5CC[C@]43C)[C@@H]2C1 [OA, oleanolic acid] | > 200 | > 200 | > 200 | > 200 | > 200 | > 200 | 140 | – | – | – | – | – | – | –
2 | CC(=O)O[C@@]12CO[C@@H]1C[C@H](O)[C@@]1(C)C(=O)[C@H](O)C3=C(C)[C@@H](OC(=O)[C@H](O)[C@@H](NC(=O)OC(C)(C)C)c4ccccc4)C[C@@](O)([C@@H](OC(=O)c4ccccc4)[C@H]21)C3(C)C [Docetaxel] | > 200 | > 200 | 172 | 104 | > 200 | 135 | 140 | – | – | – | – | – | – | –
3 | CC1(C)CC[C@]2(C(=O)OCCSC(=S)N3CCCC3)CC[C@]3(C)C(=CC[C@@H]4[C@@]5(C)CC[C@H](O)C(C)(C)[C@@H]5CC[C@]43C)[C@@H]2C1 [3a, [2-((pyrrolidine-1-carbonothioyl)thio)ethyl] 3-hydroxy-12-en-28-oic acid] | > 200 | 92.1 | > 200 | 145 | – | 89.4 | 113 | – | – | – | – | – | – | –
4 | N.N.[Cl][Pt][Cl] [Cisplatin] | – | – | – | – | – | – | – | > 200 | > 200 | > 200 | > 200 | > 200 | 142 | > 200
5 | O=c1[nH]cc(F)c(=O)[nH]1 [5-fluorouracil] | 160 | 125 | 152 | 140 | 93.3 | 130 | 109 | – | – | – | – | – | – | –
